Measured values as given in patent US10508120B2, “TYK2 inhibitors and uses thereof” (Nimbus Lakshmi, Inc., priority 2017, dated 2019).
Like-named read-outs stand apart in the source and are kept apart here.

Assays:
[1] = molecular target: human TYK2 (JH2domain-pseudokinase) (Homo sapiens (Human), UniProt P29597); experiment: TYK2 JH2 Domain Binding Assay (KINOMEscan)
Summary of the method: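 Displacement of a DNA-tagged TYK2 JH2 fusion (human, aa G556–D888, HEK293 extract, <0.1 nM) from ligand-coated beads over 1 h at RT; binding buffer PBS/0.05% Tween 20/10 mM DTT/0.1% BSA.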

Tyk2 kinase domain (DH1) = Tyk2 kinase domain (DH1) (Homo sapiens (Human), UniProt P29597); experiment: Tyk2 Radioactive Kinase Assay; assay type: biochemical; settings: read-out: Tyk2 JH1% Inhibition @ 10 μM
Tyk2 kinase domain (DH1), sequence (P29597 897-1176): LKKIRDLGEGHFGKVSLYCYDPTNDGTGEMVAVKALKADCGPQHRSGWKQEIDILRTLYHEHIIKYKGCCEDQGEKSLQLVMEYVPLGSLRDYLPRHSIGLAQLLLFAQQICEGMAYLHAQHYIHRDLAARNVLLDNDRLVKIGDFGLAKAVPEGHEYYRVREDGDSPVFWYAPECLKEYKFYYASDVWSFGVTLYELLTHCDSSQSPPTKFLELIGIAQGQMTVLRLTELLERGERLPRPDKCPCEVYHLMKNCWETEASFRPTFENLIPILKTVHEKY
Summary of the method: (§1)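 Read-out is percent inhibition from a radioactive kinase reaction, measured with compound at 10 μM.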

JAK2 kinase domain (JH1) = JAK2 kinase domain (JH1) (Homo sapiens (Human), UniProt O60674); experiment: JAK2 Radioactive Kinase Assay; assay type: biochemical; settings: read-out: JAK2 JH1% Inhibition @ 10 μM
JAK2 kinase domain (JH1), sequence (O60674 849-1124): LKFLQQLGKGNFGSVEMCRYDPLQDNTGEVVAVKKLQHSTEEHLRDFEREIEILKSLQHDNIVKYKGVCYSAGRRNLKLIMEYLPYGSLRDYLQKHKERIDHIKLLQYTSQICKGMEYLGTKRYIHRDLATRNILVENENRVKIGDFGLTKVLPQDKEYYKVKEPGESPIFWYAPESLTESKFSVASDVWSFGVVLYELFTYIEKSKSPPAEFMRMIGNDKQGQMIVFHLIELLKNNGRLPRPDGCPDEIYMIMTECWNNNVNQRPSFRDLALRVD
Summary of the method: as §1

human TYK2 (JH2domain-pseudokinase), sequence (P29597 556-888): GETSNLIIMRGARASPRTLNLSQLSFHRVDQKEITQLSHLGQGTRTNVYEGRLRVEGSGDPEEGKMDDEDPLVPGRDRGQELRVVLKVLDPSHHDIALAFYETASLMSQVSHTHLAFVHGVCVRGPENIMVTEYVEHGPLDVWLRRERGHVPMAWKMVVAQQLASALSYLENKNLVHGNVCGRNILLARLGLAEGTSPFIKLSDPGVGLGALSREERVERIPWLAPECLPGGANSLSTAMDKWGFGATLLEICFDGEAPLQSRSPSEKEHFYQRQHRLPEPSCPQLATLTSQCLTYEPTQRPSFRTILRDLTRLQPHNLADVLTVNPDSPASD

| Compound | Kd [1] [nM] | inhibition at 10 µM (Tyk2 kinase domain (DH1); compound at 10 μM, ATP 10 μM) [%] | inhibition at 10 µM (JAK2 kinase domain (JH1); compound at 10 μM, ATP 10 μM) [%] | inhibition at 10 µM (Tyk2 kinase domain (DH1); 10 μM compound, 10 μM ATP) [%] | inhibition at 10 µM (JAK2 kinase domain (JH1); 10 μM compound, 10 μM ATP) [%] |
| --- | --- | --- | --- | --- | --- |
| [2H]C([2H])([2H])Oc1ncccc1Nc1cc(NC)n2ncc(C(=O)NC(C)(C)C#N)c2n1 [I-493, N-(2-cyanopropan-2-yl)-5-((2-(methoxy-d3)pyridin-3-yl)amino)-7-(methylamino)pyrazolo[1,5-a]pyrimidine-3-carboxamide] | 0.2 to 1 | < 50 | < 50 |  |  |
| CNc1cc(Nc2cc(F)cn(C3CCN(C)CC3)c2=O)nc2c(C(=O)NC3CC3)cnn12 [I-625] | < 0.2 | < 50 | < 50 |  |  |
| CNc1cc(Nc2cccn(C(C)C)c2=O)nc2c(C(=O)N[C@H]3CC[C@H]3O)cnn12 [I-894] | < 0.2 |  |  | < 50 | < 50 |
| CNc1cc(Nc2cccn([C@H]3CC[C@]4(CCCO4)CC3)c2=O)nc2c(C(=O)NC3CC3)cnn12 [I-1109] | < 0.2 |  |  | < 50 | < 50 |
| CNc1cc(-c2cn(CCN3CCN(C)CC3)c3ncccc23)nc2c(C(=O)N[C@H]3CC[C@@H]3OC)cnn12 (stereo in doubt) [I-885, N-(2-methoxycyclobutyl)-7-(methylamino)-5-(1-(2-(4-methylpiperazin-1-yl)ethyl)-1H-pyrrolo[2,3-b]pyridine-3-yl)pyrazolo[1,5-a]pyrimidine-3-carboxamide] | < 0.2 |  |  | < 50 | < 50 |
| CNc1cc(Nc2cccn([C@H]3CC[C@](C)(OC)CC3)c2=O)nc2c(C(=O)N[C@H]3CC[C@@H]3O)cnn12 [I-1108] | < 0.2 |  |  | < 50 | < 50 |
| CNc1cc(-c2cn(C(C)C)c3ncccc23)nc2c(C(=O)NCC(C)(C)CO)cnn12 [I-588, N-(3-hydroxy-2,2-dimethylpropyl)-5-(1-isopropyl-1H-pyrrolo[2,3-b]pyridin-3-yl)-7-(methylamino)pyrazolo[1,5-a]pyrimidine-3-carboxamide] | 0.2 to 1 | < 50 | < 50 |  |  |
| CNc1cc(Nc2cccnc2OC2CC2)nc2c(C(=O)NC3CC(F)(F)C3)cnn12 [I-339, 5-((2-cyclopropoxypyridin-3-yl)amino)-N-(3,3-difluorocyclobutyl)-7-(methylamino)pyrazolo[1,5-a]pyrimidine-3-carboxamide] | 0.2 to 1 | < 50 | < 50 |  |  |
| CNc1cc(Nc2cccn(-c3ccn(C4CC4)n3)c2=O)nc2c(C(=O)NC3CC3)cnn12 [I-98] | < 0.2 | < 50 | < 50 |  |  |
| CNc1cc(Nc2cccc(-c3cn(C)nc3F)n2)nc2c(C(=O)N[C@@H]3CC[C@@H]3O)cnn12 [I-949] | 1 to 10 |  |  | < 50 | < 50 |
| CNc1cc(Nc2cccn([C@H]3CC[C@H]3O)c2=O)nc2c(C(=O)NC3CC3)cnn12 [I-1103] | 1 to 10 |  |  | < 50 | < 50 |
| CNc1cc(Nc2cc(C)cnc2OC2CC2)nc2c(C(=O)N[C@H]3C[C@H]3F)cnn12 [I-279] | < 0.2 | < 50 | < 50 |  |  |
| CNc1cc(Nc2cccn([C@@H]3CCC[C@@H](O)C3)c2=O)nc2c(C(=O)N[C@H]3CC[C@@H]3OC)cnn12 [I-1064] | < 0.2 |  |  | < 50 | < 50 |
| CNc1cc(Nc2cccnc2OC)nc2c(-c3cn(C(C)C)nn3)cnn12 [I-1008, 3-(1-isopropyl-1H-1,2,3-triazol-4-yl)-N5-(2-methoxypyridin-3-yl)-N7-methylpyrazolo[1,5-a]pyrimidine-5,7-diamine] | < 0.2 |  |  | < 50 | 50 to 70 |
| CNc1cc(Nc2cccnc2O[C@H]2C[C@@H](OC)C2)nc2c(C(=O)NC3CCC3)cnn12 [I-183] | < 0.2 | < 50 | < 50 |  |  |
| CNc1cc(Nc2cccnc2O[C@H]2CC[C@H](OC)CC2)nc2c(C(=O)NC3CCC3)cnn12 [I-248] | 0.2 to 1 | < 50 | < 50 |  |  |
| CNc1cc(Nc2cccn([C@@H]3CCC[C@H](OC)C3)c2=O)nc2c(C(=O)N[C@H]3CC[C@@H]3O)cnn12 [I-1055] | 0.2 to 1 |  |  | < 50 | < 50 |

| Compound | Kd [1] [nM] | inhibition at 10 µM (Tyk2 kinase domain (DH1); compound at 10 μM, ATP 10 μM) [%] | inhibition at 10 µM (JAK2 kinase domain (JH1); compound at 10 μM, ATP 10 μM) [%] | inhibition at 10 µM (Tyk2 kinase domain (DH1); 10 μM compound, 10 μM ATP) [%] | inhibition at 10 µM (JAK2 kinase domain (JH1); 10 μM compound, 10 μM ATP) [%] |
| --- | --- | --- | --- | --- | --- |
| CNc1cc(Nc2cccc([C@@H]3CCCOC3)n2)nc2c(C(=O)NC3CC3)cnn12 [I-548] | < 0.2 | < 50 | 50 to 70 |  |  |
| CNc1cc(Nc2cccn(-c3nn(C)c(C)c3C)c2=O)nc2c(C(=O)N[C@@H]3C[C@@H]3F)cnn12 [I-505] | 0.2 to 1 | < 50 | < 50 |  |  |
| CNc1cc(Nc2cccn([C@H]3CCOC[C@H]3OC)c2=O)nc2c(C(=O)NC3CC3)cnn12 [I-595] | 1 to 10 | < 50 | < 50 |  |  |
| CNc1cc(Nc2cc(C)cn(-c3cnn(C4CC4)c3C)c2=O)nc2c(C(N)=O)cnn12 [I-114] | 1 to 10 | < 50 | < 50 |  |  |
| CNc1cc(Nc2cccn(C3CC4(COC4)C3)c2=O)nc2c(C(=O)N[C@@H]3CC[C@@H]3O)cnn12 [I-871] | 0.2 to 1 |  |  | < 50 | < 50 |
| CNc1cc(Nc2cccn(-c3ccccn3)c2=O)nc2c(C(=O)N[C@@H]3CC[C@@H]3O)cnn12 [I-743] | < 0.2 | < 50 | < 50 |  |  |
| CNc1cc(Nc2cccnc2OC)nc2c(C(=O)NCCC3(O)CC3)cnn12 [I-468, N-(2-(1-hydroxycyclopropyl)ethyl)-5-((2-methoxypyridin-3-yl)amino)-7-(methylamino)pyrazolo[1,5-a]pyrimidine-3-carboxamide] | 0.2 to 1 | < 50 | < 50 |  |  |
| CNc1cc(Nc2cccc([C@H]3CCCOC3)n2)nc2c(C(=O)N[C@H]3CC[C@@H]3O)cnn12 [I-602] | < 0.2 | < 50 | < 50 |  |  |
| CNc1cc(Nc2cc(Cl)cnc2OC2CCOC2)nc2c(C(N)=O)cnn12 (stereo not drawn) [I-71] | < 0.2 | < 50 | < 50 |  |  |
| CNc1cc(Nc2cccn([C@H]3CCC[C@@H]3OC)c2=O)nc2c(C(=O)N[C@@H]3C[C@@H]3F)cnn12 [I-442] | 0.2 to 1 | < 50 | < 50 |  |  |
| CNc1cc(Nc2cccn([C@H]3CCC[C@H](O)C3)c2=O)nc2c(C(=O)N[C@@H]3C[C@@H]3F)cnn12 [I-1030] | < 0.2 |  |  | < 50 | < 50 |
| [2H]C([2H])([2H])Oc1ncccc1Nc1cc(NC)n2ncc(C(=O)N[C@H]3CC[C@H](O)C3)c2n1 [I-462] | < 0.2 | < 50 | < 50 |  |  |
| CNc1cc(Nc2cccn(-c3cccc(F)c3)c2=O)nc2c(C(=O)N[C@@H]3CC[C@@H]3O)cnn12 [I-1005] | 0.2 to 1 |  |  | < 50 | < 50 |
| CNc1cc(-c2cn(CCN3CCOCC3)c3ncccc23)nc2c(C(=O)N[C@H]3COC[C@H]3O)cnn12 [I-856, N-((3S,4S)-4-hydroxytetrahydrofuran-3-yl)-7-(methylamino)-5-(1-(2-morpholinoethyl)-1H-pyrrolo[2,3-b]pyridin-3-yl)pyrazolo[1,5-a]pyrimidine-3-carboxamide] | 0.2 to 1 |  |  | < 50 | < 50 |
| CNc1cc(Nc2ccnn(-c3ccc(F)cc3)c2=O)nc2c(C(=O)N[C@H]3C[C@H]3F)cnn12 [I-134] | 0.2 to 1 | < 50 | < 50 |  |  |
| CNc1cc(Nc2cccn([C@@H]3CCC[C@@H]3O)c2=O)nc2c(C(=O)N[C@@H]3C[C@@H]3F)cnn12 [I-966] | 0.2 to 1 |  |  | < 50 | < 50 |
| CNc1cc(Nc2cccc([C@@H]3CCCCO3)n2)nc2c(C(=O)N[C@@H]3CC[C@@H]3O)cnn12 [I-610] | < 0.2 | < 50 | < 50 |  |  |
